Experimental data as given in paper PMC8619673 (Cells, 2021).

Experiments:
[1] = test system: BAX; test: Western blot, BAX; assay type: cell-based, Human; conditions: 5 µM; induced untreated 182%
Procedure: (§1) Cellular proteins were prepared using a lysis buffer containing NaCl (150 mM), ethylene diamine tetraacetic acid (EDTA, 1 mM, pH8.0), Tris-HCl (50 mM, pH8.0), ethylene glycol tetraacetic acid (EGTA, 1 mM, pH8.0), sodium dodecyl sulfate (SDS, 0.1%), sodium deoxycholate (SD, 0.5%), Triton X-100 (1%), and protease (Sigma-Aldrich), and phosphatase (Abcam, Cambridge, MA, USA) inhibitor cocktails. After quantitation by protein assay kit (Bio-Rad, Hercules, CA, USA), 20 µg proteins were separated by SDS-polyacrylamide (10%) gel electrophoresis and transferred to polyvinylidene difluoride (PVDF) membranes (Sigma-Aldrich) using a Mini Trans-Blot cell (Bio-Rad). After blocking, the membrane was probed with anti-TRKB, anti-p-TRKB (Y516), anti-p-TRKB (Y817) (1:500; Cell Signaling, Danvers, MA, USA), anti-ERK, anti-p-ERK (T202/Y204) (1:1000; Cell Signaling), anti-AKT, anti-p-AKT (S473) (1:1000; Cell Signaling), anti-CREB, anti-p-CREB (S133) (1:1000; Millipore, Billerica, MA, USA), anti-BDNF, anti-BCL2 (1:500; Santa Cruz Biotechnology, Santa Cruz, CA, USA), anti-BAX (1:1000; Cell Signaling), anti-β-tubulin (1:500; Sigma-Aldrich), or anti-GAPDH (1:1000, MDBio, Taipei, Taiwan) antibody. The immune complexes were detected using goat anti-mouse or goat anti-rabbit IgG antibody conjugated with horseradish peroxidase (1:5000; GeneTex, Irvine, CA, USA) and chemiluminescent substrate (Millipore).

[2] = test system: BCL2; test: Western blot, BCL2; assay type: cell-based, Human; conditions: 5 µM; induced untreated 72%
Procedure: as §1

[3] = test system: CREB; test: Western blot, p-CREB; assay type: cell-based, Human; conditions: 5 µM; induced untreated 81%
Procedure: as §1

[4] = test system: TRKB; test: Western blot, TRKB and p-TRKB; assay type: cell-based, Human; conditions: 5 µM
Procedure: as §1
(§2) Lentiviral short hairpin RNA (shRNA) targeting TRKB (TRCN0000002243, TRCN0000002245, and TRCN0000002246) and a negative-scrambled control (TRC2.Void) were obtained from the National RNAi Core Facility, IMB/GRC, Academia Sinica (Taipei, Taiwan). As described, cells were plated on 6- or 24-well plates, with retinoic acid added on day 1. Cells were infected with lentivirus (multiplicity of infection, 3 for each shRNA), with polybrene (8 µg/mL; Sigma-Aldrich) on the next day. Cells were pretreated with tested compounds (5 µM) for 8 h after changing medium, followed by doxycycline on day 3. Cells were collected for further analysis on day 9. The hairpin sequences of targeting shRNA were below: • TRCN0000002243: 5’-[…]ctcgag[…]-3’ • TRCN0000002245: 5’-[…]ctcgagATGTT-[…]-3’ • TRCN0000002246: 5’-[…]ctcgag[…]-3’ • TRC2.Void: 5’-[…]ctcgag[…]-3’

[5] = in vitro; conditions: for Papp at 18 h, 1 μM: PAMPA
Procedure: PAMPA was used to predict the penetration of the tested compounds across the BBB. […] The filter PVDF membrane (pore size 0.45 μm; Millipore) was coated with 4 μL of porcine polar brain lipid (20 mg/mL; Avanti Polar Lipids, Alabaster, AL, USA) in dodecane and the acceptor well filled with 200 μL of 5% DMSO in PBS. The filter plate was carefully placed on the donor plate to form a sandwich plate at room temperature for 18 h. After the permeation time, the filter and donor plates were separated. The concentration of the tested compound in the donor and acceptor wells was measured by an AB Sciex QTrap 5500 mass spectrometer (Applied Biosystems) linked to a 1200 HPLC system (Agilent Technologies, Palo Alto, CA, USA). The concentrations of the QC compounds were determined by a Tecan Infinite M200 Pro microplate reader (Switzerland). The effective permeability coefficient (Pe) was calculated as described. Each compound was tested in triplicate.

[6] = test system: AKT; test: Western blot, p-AKT; assay type: cell-based, Human; conditions: 5 µM; induced untreated 81%
Procedure: as §1

[7] = test system: BDNF; test: Western blot, BDNF; assay type: cell-based, Human; conditions: 5 µM
Procedure: as §1

[8] = test system: Aβ-GFP SH-SY5Y cells; test: Neurite outgrowth analysis; assay type: cell-based, Human; conditions: 5 µM
Procedure: Aβ-GFP SH-SY5Y cells (6 × 10^4 cells) were seeded on a 24-well plate with retinoic acid (10 µM) on day 1. Tested coumarins (5 µM) and doxycycline (5 μg/mL) were added on day 2, as described. On day 8, the cells were washed with phosphate-buffered saline (PBS) twice and fixed in 4% paraformaldehyde at 4 °C for 15 min. Cells were permeabilized with Triton X-100 (0.1%) for 10 min, blocked with bovine serum albumin (3%) for 20 min, and stained with anti-neuronal TUBB3 antibody (1:1000; Covance, Princeton, NJ, USA) at 4 °C overnight. The next day, cells were washed with PBS twice and stained by a secondary donkey anti-rabbit Alexa Fluor® 555 antibody (1:1000; Thermo Fisher Scientific) and 4′,6-diamidino-2-phenylindole (DAPI; 0.1 µg/mL; Sigma-Aldrich) at room temperature for 1 h. Neuronal images from at least 60 individual fields (150–250 neurons per field) per experiment were captured at excitation 531/40 nm and emission 593/40 nm wavelengths using an ImageXpress micro confocal high-content imaging system (Molecular Devices). Neurite total length (μm) and numbers of process (the number of primary neurites originated from the cell body of a neuron) and branch (the number of secondary neurites extended from primary neurites) were analyzed using a MetaXpress neurite outgrowth application module (Molecular Devices). For each sample, around 6000 cells were analyzed in each of three independent experiments.
as §2

[9] = test system: ERK; test: Western blot, p-ERK; assay type: cell-based, Human; conditions: 5 µM; induced untreated 79%
Procedure: as §1

[10] = target: T1, Aβ42 peptide (Homo sapiens, UniProt P05067); test: Thioflavin T aggregation assay; assay type: biochemical; conditions: for Aβ aggregation inhibition (in words): compound 20 μM, thioflavin T assay
T1 construct: Aβ42 peptide (10 μM; Kelowna Int’l Scientific Inc., New Taipei City, Taiwan); purchased Kelowna Int’l Scientific Inc., New Taipei City, Taiwan
T1 sequence (P05067 672-713 limits assumed): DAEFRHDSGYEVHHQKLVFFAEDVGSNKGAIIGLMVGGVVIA
Procedure: To form Aβ aggregation, Aβ42 peptide (10 μM; Kelowna Int’l Scientific Inc., New Taipei City, Taiwan) was incubated with tested compounds (5–20 μM) in 150 mM NaCl and 20 mM Tris-HCl (pH8.0) at 37 °C for 48 h. Thioflavin T (10 μM; Sigma-Aldrich) was added to the Aβ mixture and incubated at room temperature for 5 min. The fluorescence intensity was recorded at 420 nm excitation and 485 nm emission by an FLx800 microplate reader (Bio-Tek, Winooski, VT, USA). Half maximal effective concentration (EC50) was estimated by a method of interpolation.

[11] = in vitro; assay type: cell-based; conditions: human
Procedure: To induce neuronal differentiation, 2 × 10^4 Aβ-GFP SH-SY5Y cells were seeded on a 96-well plate with retinoic acid (10 µM; Sigma-Aldrich). Cells were pretreated with tested compounds (0.2–5 µM) on day 2 for 8 h and then with doxycycline (5 μg/mL) to induce Aβ-GFP expression. Medium containing retinoic acid compound and doxycycline was refreshed every 2 days for 6 days. Then, cells were stained with Hoechst 33342 (0.1 µg/mL; Sigma-Aldrich) at 37 °C for 30 min. Cell images were recorded at 482/35 nm excitation and 536/40 nm emission wavelengths (ImageXpres Micro Confocal High-Content Imaging System; Molecular Devices, Sunnyvale, CA, USA), and analyzed by MetaXpress (Molecular Devices).

What does the source list for `O=c1cc(-c2ccccc2)oc2c(O)c(O)ccc12` [7,8-DHF, reference compound]?
BAX protein level relative to uninduced cells (100%) [1]: 126%; BCL2 protein level relative to uninduced cells (100%) [2]: 104–116%; p-CREB (S133) protein level relative to uninduced cells (100%) [3]: 98–101%; p-TRKB (Y516) protein level relative to uninduced cells (100%) ([4]; induced untreated 40%): 92–100%; p-TRKB (Y817) protein level relative to uninduced cells (100%) ([4]; induced untreated 71%): 94–108%; TRKB expression relative to uninduced cells (100%) ([4]; scrambled shRNA-infected Aβ-expressing cells, untreated 80%): 77–81%; BBB Permeability Classification ([5]; PAMPA-BBB): High (Pe > 4 × 10^−6 cm/s (high)); Measured Pe (effective permeability) ([5]; PAMPA-BBB, room temperature 18 h, triplicate): 6.32 ± 1.35 10^−6 cm/s; p-AKT (S473) protein level relative to uninduced cells (100%) [6]: 91–110%; BDNF 14 kDa protein level relative to uninduced cells (100%) ([7]; induced untreated 42%): 124–140%; BDNF 32 kDa protein level relative to uninduced cells (100%) ([7]; induced untreated 88%): 113–119%; Neurite process number ([8]; TRKB shRNA-infected cells, untreated 2.9): 3.5; Neurite branch number ([8]; scrambled shRNA-infected cells, untreated 2.4): 3.0–3.1; Neurite process number ([8]; scrambled shRNA-infected cells, untreated 3.5): 3.9–4.0; Neurite length ([8]; scrambled shRNA-infected cells, untreated 25.3): 30.7–30.9 µm; p-ERK (T202/Y204) protein level relative to uninduced cells (100%) [9]: 95–107%

With `NC(=O)N1c2ccccc2C=Cc2ccccc21` [Carbamazepine, carbamazepine] as the compound, how does the Papp at 18 h, 1 μM ([5]; BBB Permeability Classification) read?
The Papp at 18 h, 1 μM was > 4 ×10⁻⁶ cm/s.

And the Papp at 18 h, 1 μM ([5]; Measured Pe (effective permeability))?
The Papp at 18 h, 1 μM was 9.85 ± 0.6 ×10⁻⁶ cm/s.

With `CC(Oc1ccc2cc(C(=O)c3ccccc3)c(=O)oc2c1)C(=O)O` (stereo not shown) [ZN009, 2-((3-benzoyl-2-oxo-2H-chromen-7-yl)oxy)propanoic acid] as the compound, how does the “Aβ aggregation inhibition (in words)” value [10] read?
Its value is “did not inhibit Aβ aggregation”.

Which “Aβ aggregation inhibition (in words)” value [10] does the source give for `O=C(c1ccc(Cl)cc1)c1c(O)c2ccccc2oc1=O` [ZN010, 3-(4-chlorobenzoyl)-4-hydroxy-2H-chromen-2-one] here?
The value was “did not inhibit Aβ aggregation”.

For `COc1ccc(C(=O)c2cc3ccc(O)cc3oc2=O)cc1` [ZN011, 7-hydroxy-3-(4-methoxybenzoyl)-2H-chromen-2-one], which “Aβ aggregation inhibition (in words)” value [10] is on record?
Its value is “did not inhibit Aβ aggregation”.

Which Neurite branch number ([8]; induced untreated 1.8, uninduced 2.8) does the source give for `COc1cc(/C=C/C(=O)CC(=O)/C=C/c2ccc(O)c(OC)c2)ccc1O` [curcumin, Curcumin, reference compound] here?
The Neurite branch number was 2.4–2.5.

And the Neurite process number ([8]; induced untreated 3.3, uninduced 4.4)?
The Neurite process number was 4.2–4.3.

What about the Neurite total length ([8]; induced untreated 23.9, uninduced 31.2) of the same compound?
Its Neurite total length is 29.1–29.3 μm.

What about the “Thioflavin T fluorescence (Aβ aggregation)” value ([10]; compound 20 µM, Aβ42 10 μM, 37 °C 2 days, 621 AU without compound, 151 AU without incubation) of the same compound?
Its value is 339 AU.

And the viability at 6 days, 10 µM [11]?
Its viability at 6 days, 10 µM is < 80%.

Which “Penetration of integrity marker (in words)” value ([5]; PAMPA-BBB, indicates good membrane integrity) does the source give for lucifer yellow here?
The value was “undetectable”.

And the “% Transport” value ([5]; PAMPA-BBB, integrity marker)?
The value was 0.00 (% Transport).
